Test results taken from US20050042747A1, “Hivgp120-induced bob/gpr15 activation” (priority 2001, published 2005).

Tests used:
Type in all cases: cell-based, human
[1] = system: microtubules in HT-29 cells; experiment: Microtubule staining (acetylated tubulin) in HT-29 cells; details: one hour after gp120 treatment
Procedure: To examine the microtubules, HT-29 cells were treated with 10 nM gp120CM235 or 50 pM gp120IIIB, then fixed one hour later in 4 g/100 ml paraformaldehyde PBS, then stained with mouse anti acetylated tubulin (5 μg/ml, Sigma) by a method similar to that given above. Some cells were pretreated with 50 μg/ml antiBob37 overnight, 1 μg/ml pertussis toxin overnight, or 4.6 μg/ml U73122 for one hour before the gp120 was added. Untreated cells were also stained.
Similarly treated undifferentiated HT-29 cells (except that Fluo-4 was not added) were fixed in paraformaldehyde phosphate buffered saline one hour after gp120 treatment.

HT-29 cells = experiment: Calcium signaling in HT-29 cells (Fluo 4, confocal microscope)
Procedure: HT-29 cells (from ATCC) were grown in DMEM-F12 with 10% bovine calf serum, and were used 24-48 hours after plating. The Ghost (3) cells were obtained from the AIDS Research and Reference Reagent Program, and were grown DMEM with 10% bovine calf serum supplemented with 500 μg/ml G418, 100 μg/ml hygromycin, and 1 μg/ml puromycin.^27 These cells were used 24 to 96 hours after plating.
Calcium studies were done on HT-29 cells and Ghost (3) cells loaded with Fluo 4. The cells were placed in Locke's buffer containing 5 μg/ml Fluo 4 AM ester (Molecular Probes) for 20 to 30 minutes, then in Locke's buffer for an additional 30 minutes before testing. Various concentrations of gp120IIIB (X4 trophic), gp120CM235 (R5 trophic), gp120mN (X4 trophic), gp12093TH975 (nonsyncytium-inducing primary isolate from an asymptomatic subject, trophism undetermined but likely R5), and gp120SF2 (X4R5 trophic), ranging from 10 nM to less than 1 pM, were added in Locke's buffer.^6 The gp120 proteins were obtained from the AIDS Research Reagent Referral Program. Some HT-29 cells were given one of the following pretreatments: 50 μg/ml anti-Bob37 overnight, 1 μg/ml pertussis toxin overnight, or 4.6 μg/ml U73122 for one hour. With the HT-29 cells only, similar tests were also performed with SDF-1, MIP-1α, MIP-1β, and RANTES rather than gp120. The cells were visualized every 4 seconds in a confocal microscope, using 488 nm argon laser excitation and detection filters appropriate for fluorescein-like dyes.
For the first two or three days after plating, gp120 induces an immediate (within 4 seconds) calcium flux in undifferentiated HT-29 cells. The cells had previously been loaded with Fluo-4 AM ester (Molecular Probes, Eugene Oreg.) 5 micrograms/ml in the presence of Pleuronic F-127 0.02% in Locke's buffer for 30 minutes, then incubated at room temperature for an additional 30 minutes. Gp120IIIB was added while the cells were on an inverted confocal microscope using a 488 nm argon laser, with detection filters suitable for fluorescein-like dyes. […]

[2] = system: peripheral blood mononuclear cells; experiment: gp120-induced calcium flux in peripheral blood mononuclear cells
Procedure: Normal human peripheral blood mononuclear cells were isolated by Ficoll gradient centrifugation, and loaded with the calcium sensitive dye Fluo-4. HIV gp120IIIB induced strong calcium fluxes in the range of 7 nM to 50 pM, and there was a weaker signal at 5 pM.
Experiments corresponding to those with HT-29 cells were done with peripheral blood mononuclear cells. These were isolated from the blood of a healthy, HIV-uninfected person by a Ficoll-Hypaque techique (Histopaque, Sigma), then loaded with Fluo-4 by a technique nearly identical to that used for HT-29 cells, except that Hank's buffer was used rather than Locke's, and the cells were centrifuged (2,000 g for 10 minutes) just before calcium flux measurements to improve adherence. Gp120-induced calcium fluxes were documented with as little as 5 pM gp120IIIB.

## gp120IIIB: HIV-1 envelope surface protein gp120 of strain IIIB (X4 trophic), from the AIDS Research Reagent Referral Program
[1]
  effect on acetylated tubulin-staining microtubules: marked loss of microtubules
HT-29 cells
  calcium signaling in HT-29 cells, in words: induced an immediate calcium signal
HT-29 cells; undifferentiated HT-29 cells, serial dilution
  minimal concentration causing calcium signaling: 1 pM
[2]; 50 picomolar, 4 seconds after treatment, Fluo-4
  cells substantially brighter after treatment (increase in intracellular calcium): Approximately 30%
[2]; freshly isolated cells
  lowest gp120IIIB concentration giving calcium flux: 5 pM
